Like-named read-outs stand apart in the source and are kept apart here. Values belong to the molecule of their own block, whether it stands above or below them.
Key:
[1] = Dog PK of astaxanthin derivatives (CXPK07402, 07404, 07405, 07406)
Experimental: In another experiment, ADL was administered to non-naïve beagle dogs orally (as an aqueous suspension containing 0.5% carboxymethylcellulose) and intravenously as an aqueous solution. Oral doses that included 10 mg/kg of the carotenoid derivative, 100 mg/kg of the carotenoid derivative, and 500 mg/kg of the carotenoid derivative were administered to each dog. The intravenous dosage was 5 mg/kg. (See FIG. 20, PK Study #CXPK07402). For each carotenoid derivative given to the dogs in this example, the amount of all astaxanthin isomers, the amount of trans astaxanthin isomers, and the amount of cis astaxanthin isomers in the plasma was determined at predefined time intervals for 3 days (72 hours).
In another experiment, ADL was administered to naïve beagle dogs orally (as an aqueous suspension containing 0.5% carboxymethylcellulose) twice a day for six days. Each oral dose included 75 mg/kg of the carotenoid derivative. (See FIG. 20, PK Study #CXPK07404). For each carotenoid derivative given to the dogs in this example, the amount of all astaxanthin isomers, the amount of trans astaxanthin isomers, and the amount of cis astaxanthin isomers in the plasma was determined at predefined time intervals for 6 days.
In another experiment, all-trans 3S,3′ S-astaxanthin diester di-beta-alanine dihydrochloride salt (hereinafter “ADA”); ADG; ADL; ADSa; and ADS were administered orally to separate non-naïve dogs as a aqueous suspension containing 0.5% carboxymethylcellulose. A single dose that included 20 mg/kg of the carotenoid derivative was administered to each dog. (See FIG. 20, PK Study #CXPK07405). For each carotenoid derivative given to the dogs in this example, the amount of all astaxanthin isomers was determined at predefined time intervals for 3 days (72 hours).
In another experiment, ADG or ADSa was administered to non-naïve beagle dogs orally (as an aqueous suspension containing 0.5% carboxymethylcellulose). Oral doses included either 50 mg/kg of the carotenoid derivative or 100 mg/kg of the carotenoid derivative. (See FIG. 20, PK Study #CXPK07406). For each carotenoid derivative given to the dogs in this example, the amount of all astaxanthin isomers, the amount of trans astaxanthin isomers, and the amount of cis astaxanthin isomers in the plasma was determined at predefined time intervals for 3 days (72 hours).

[2] = rat, in vivo
Experimental: In a another experiment, all-trans 3S,3′S-astaxanthin diester diglycinate dihydrochloride salt (hereinafter “ADG”); all-trans 3S,3′S-astaxanthin diester disarcosinate dihydrochloride salt (hereinafter “ADSa”); and ADL were administered orally to separate rats as a aqueous suspension containing 0.5% carboxymethylcellulose. A single dose that included 40 mg/kg of the carotenoid derivative was administered to each rat. (See FIG. 20, PK Study #CXPK07202). For each carotenoid derivative given to the rats in this example, the amount of all astaxanthin isomers, the amount of trans astaxanthin isomers, and the amount of cis astaxanthin isomers in the plasma was determined at predefined time intervals for 3 days (72 hours).
In another experiment, ADG; ADSa; and ADL were administered to separate rats intravenously as an aqueous solution. A single dose that included 5 mg/kg of the carotenoid derivative was administered to each rat. (See FIG. 20, PK Study #CXPK07202). For each carotenoid derivative given to the rats in this example, the amount of all astaxanthin isomers, the amount of trans astaxanthin isomers, and the amount of cis astaxanthin isomers in the plasma was determined at predefined time intervals for 3 days (72 hours).

[3] = Aqueous dispersibility; assay type: physicochemical; conditions: USP-purified water; no heat, detergents, co-solvents
From the text: In some embodiments, highly water-dispersible C40 carotenoid derivatives may include natural source RRR-lutein (β,ε-carotene-3,3′-diol) derivatives. Derivatives may be synthesized by esterification with inorganic phosphate and succinic acid, respectively, and subsequently converted to the sodium salts. Deep orange, evenly colored aqueous suspensions were obtained after addition of these derivatives to USP-purified water. […] Aqueous suspensions may be obtained without the addition of heat, detergents, co-solvents, or other additives.
Disodium disuccinate astaxanthin (DDA; see FIG. 1B) was synthesized from commercially available crystalline astaxanthin (Buckton Scott, India) as previously described in Frey, et al. (“The efficient synthesis of disodium disuccinate astaxanthin (Cardax).” Org Process Res Dev 8: 796-801, 2004.). The final product purity was 97% (as area under the curve) by HPLC analysis. DDA was dissolved directly in sterile-filtered deionized water. The maximum aqueous dispersibility of DDA is approximately 10 mM, or 8.64 mg/ml. Vehicle consisted of isotonic sterile 0.9% NaCl solution.

[4] = set-up: species or system rats; conditions: in vivo, po, 500 mg/kg
Experimental: In one experiment, astaxanthin; all-trans 3S,3'S-astaxanthin diester disuccinate disodium salt (hereinafter “ADS”); and all-trans 3S,3'S-astaxanthin diester […] tetrahydrochloride salt (hereinafter “ADL”) were administered orally to separate rats as a lipid suspension. A single dose that included 500 mg/kg of the carotenoid/carotenoid derivative was administered to each rat. (See FIG. 20, PK Study #CXPK07201). Plasma from each of the rats was collected 4 hours after ingestion and 8 hours after ingestion and all samples were analyzed by high performance liquid chromatography (“HPLC”). HPLC analysis was used to detect the presence of free underivatized carotenoid (e.g., in this example, astaxanthin) in the plasma. HPLC chromatograms were collected for each plasma sample taken.

[5] = tested on: vascular platelets; assay: Platelet-derived nitric oxide (NO) release after IP3 stimulation, NO nanosensor; assay type: cell-based, Wistar-Kyoto (WKY) rats
Experimental: Wistar-Kyoto (WKY) rats were anaesthetized and blood was collected directly from the heart using a 10 mL syringe that contained 3.8% sodium citrate (9:1, v v^−1). […] The platelet rich plasma (PRP) was then removed by aspiration. […] The number of platelets was counted and adjusted to 3.5×10^8 per mL with Tyrode-HEPES buffer. The platelets were incubated in an aggregometer with a NO nanosensor (working electrode) placed in the platelet suspension. […] All measurements of NO release were conducted in Hank's balanced salt solution (HBSS) at 37° C. The sensor operated with a three-electrode system: nanosensor (working electrode), saturated calomel electrode (reference electrode), and platinum wire (counter electrode, 0.5 mm diameter). The three electrodes were connected to a potentiostat/galvanostat PAR273. The baseline was stabilized after ˜20 s. With a nanoinjector, the test compounds were injected onto the surface of the cells following solubilization in buffer. In experiments with multiple compounds, the compounds were injected simultaneously. […] Data were acquired with the use of custom software. Amperograms (current vs. time curves) were recorded with a Guniry FAS1 Femtostat (Warminster, Pa.). The nanosensor for NO was calibrated using saturated solution (concentration 1.82 mM verified with the coulometric method). […] The data were presented as mean±S.D. for each of the triplicate measurements. The data (calculation and plotting) were transferred to Microcal Origin Software (OriginLab Corp., Northampton, Mass.). […] The NO concentration was calculated using current responses obtained from standard NO solution (prepared from […] stock solution, saturated aqueous NO solution).

[6] = tested on: human umbilical vein endothelial cells (HUVEC); assay: Calcium ionophore (CaI)-stimulated total peroxynitrite release from HUVEC; assay type: cell-based; conditions: 3S,3′S-AST 5.0 μM, clopidogrel 1.0 μM, alone or in combination; FIG. 6
Experimental: (§1) Human umbilical vein endothelial cells (HUVECs) were isolated into primary cultures from white female donors by Clonetics (San Diego, Calif.), essentially as described (Mason et al. 2005). All donors were reported to be healthy and none had pregnancy or prenatal complications. All measurements were recorded in vitro using a sensitive porphyrinic probe, also as previously described. HUVEC cells were grown in Ham's F12K medium with 2 mM L-glutamine adjusted to contain 1.5 g/L sodium bicarbonate and supplemented with 0.1 mg/mL heparin and 0.03-0.05 mg/mL endothelial cell growth supplement (ECGS) plus 10% fetal bovine serum. The HUVEC cells were kept in an atmosphere of elevated CO2 concentration (5%).

[7] = tested on: human umbilical vein endothelial cells (HUVEC); assay: CaI-stimulated NO/OONO- release ratio from HUVEC; assay type: cell-based; conditions: 3S,3′S-AST 5.0 μM, clopidogrel 1.0 μM, alone or in combination; FIG. 7
Experimental: as §1

[8] = tested on: human umbilical vein endothelial cells (HUVEC); assay: Calcium ionophore (CaI)-stimulated total nitric oxide release from HUVEC; assay type: cell-based; conditions: 3S,3′S-AST 5.0 μM, clopidogrel 1.0 μM, alone or in combination; FIG. 5
Experimental: as §1
All measurements of NO release were conducted in Hank's balanced salt solution (HBSS) at 37° C. The sensor operated with a three-electrode system: nanosensor (working electrode), saturated calomel electrode (reference electrode), and platinum wire (counter electrode, 0.5 mm diameter). The three electrodes were connected to a potentiostat/galvanostat PAR273. […] The current (amps) proportional to the NO concentration was measured with the sensor, which operated in amperometric mode at a constant potential of 0.63 V. Data were acquired with the use of custom software. Amperograms (current vs. time curves) were recorded with a Guniry FAS1 Femtostat (Warminster, Pa.).

Structure (SMILES): CC(C=CC=C(C)C=CC1=C(C)C(=O)C(OC(=O)CCN)CC1(C)C)=CC=CC=C(C)C=CC=C(C)C=CC1=C(C)C(=O)C(OC(=O)CCN)CC1(C)C.Cl.Cl (stereo not drawn) [ADA, all-trans 3S,3′ S-astaxanthin diester di-beta-alanine dihydrochloride salt]
- absorption and metabolism to astaxanthin in plasma ([1]; non-naïve dogs, single oral 20 mg/kg): absorbed by the dogs and metabolized

Structure (SMILES): CC1=C(/C=C/C(C)=C/C=C/C(C)=C/C=C/C=C(C)/C=C/C=C(C)/C=C/C2=C(C)C(=O)[C@@H](OC(=O)[C@@H](N)CCCCN)CC2(C)C)C(C)(C)C[C@H](OC(=O)[C@@H](N)CCCCN)C1=O.Cl.Cl.Cl.Cl (relative stereo) [ADL, all-trans 3S,3′S-astaxanthin diester dilysinate tetrahydrochloride salt]
- absorption and metabolism to astaxanthin in plasma ([1]; dog, in vivo, po, 20 mg/kg): absorbed by the dogs and metabolized
- absorption and metabolism to astaxanthin in plasma ([1]; dog, in vivo, po, 75 mg/kg): absorbed by the dogs and metabolized
- free astaxanthin in rat plasma [4]: significant amount
- absorption and metabolism to astaxanthin in plasma ([2]; iv, 5 mg/kg): absorbed by the rats and metabolized
- absorption and metabolism to astaxanthin in plasma ([2]; po, 40 mg/kg): absorbed by the rats and metabolized

Structure (SMILES): CCC(C)(C)C(=O)O[C@H]1C[C@@H](C)C=C2C=C[C@H](C)[C@H](CC[C@@H]3C[C@@H](O)CC(=O)O3)[C@H]21 [simvastatin, reference compound]
- effect on platelet-derived NO release ([5]; 1.0 μM, IP3 1.0 μM, FIG. 11): no effect

Structure (SMILES): COC(=O)[C@H](c1ccccc1Cl)N1CCc2sccc2C1 [clopidogrel, reference compound]
- effect on CaI-stimulated total peroxynitrite (OONO−) release from HUVEC [6]: did not significantly change
- effect on CaI-stimulated NO/OONO− release ratio from HUVEC [7]: did not significantly change
- effect on CaI-stimulated total nitric oxide release from HUVEC [8]: did not significantly change
- total NO release from vascular platelets ([5]; IP3 stimulation, homochiral astaxanthin 5.0 μM, clopidogrel 1.0 μM, controls 6.6±0.3, mean±S.D.): 10.2±0.4 molecules NO×10^6/platelet

The remaining lines, values ahead:

- absorption and metabolism to astaxanthin in plasma ([1]; dog, in vivo, po, 20 mg/kg): absorbed by the dogs and metabolized
- absorption and metabolism to astaxanthin in plasma ([2]; iv, 5 mg/kg): absorbed by the rats and metabolized
- absorption and metabolism to astaxanthin in plasma ([2]; po, 40 mg/kg): absorbed by the rats and metabolized
Structure (SMILES): CC1=C(/C=C/C(C)=C/C=C/C(C)=C/C=C/C=C(C)/C=C/C=C(C)/C=C/C2=C(C)C(=O)[C@@H](OC(=O)CN)CC2(C)C)C(C)(C)C[C@H](OC(=O)CN)C1=O.Cl.Cl (relative stereo) [ADG, all-trans 3S,3′S-astaxanthin diester diglycinate dihydrochloride salt]

- aqueous dispersibility [3]: 2.85 mg/mL
Structure (SMILES): CC(C=CC=C(C)C=CC1=C(C)CC(OC(=O)CCC(=O)[O-])CC1(C)C)=CC=CC=C(C)C=CC=C(C)C=CC1C(C)=CC(OC(=O)CCC(=O)[O-])CC1(C)C.[Na+].[Na+] (centres unmarked)

- absorption and metabolism to astaxanthin in plasma ([1]; dog, in vivo, po, 20 mg/kg): absorbed by the dogs and metabolized
- free astaxanthin in rat plasma [4]: significant amount
Structure (SMILES): CC1=C(/C=C/C(C)=C/C=C/C(C)=C/C=C/C=C(C)/C=C/C=C(C)/C=C/C2=C(C)C(=O)[C@@H](OC(=O)CCC(=O)[O-])CC2(C)C)C(C)(C)C[C@H](OC(=O)CCC(=O)[O-])C1=O.[Na+].[Na+] (relative stereo) [ADS, all-trans 3S,3′S-astaxanthin diester disuccinate disodium salt]

From patent US8063101B2, “Carotenoid analogs and derivatives for the prevention of platelet aggregation” (Cardax Pharmaceuticals, Inc., priority 2007, dated 2011)
